This is an account of results in patent US5563268A, “Heterobiaryl derivatives” (Dr. Karl Thomae GmbH, priority 1991, dated 1996).

The test system of data set [1] is human thrombocytes. As to the kind of experiment: Fibrinogen binding to human thrombocytes (125I-fibrinogen, gel-filtered platelets). The note with it: inhibition of 125I-fibrinogen binding by 50%, 20 minutes at ambient temperature, read-out: Fibrinogen binding test ID50. The procedure: (§1) 1. Fibrinogen binding to human thrombocytes Blood obtained by puncture of an antecubital vein is anticoagulated with trisodium citrate (final concentration: 13 mM) and centrifuged for 10 minutes at 170 *g. The supernatant platelet-rich plasma is placed on a Sepharose 2B column (Pharmacia) and eluted with a solution of 90 mM common salt, 14 mM trisodium citrate, 5 mM glucose and 50 mM tris(hydroxymethyl)aminomethane, adjusted to pH 7.4. The gel-filtered platelets (GFP) appearing in front of the plasma proteins are used for the binding tests. 50 μl of a 60 mM calcium chloride solution, 50 μl of a 0.6 mM adenosine diphosphate solution, 100 μl of substance solution or solvent and 50 μl of fibrinogen solution (containing 3 μg ^125 I-fibrinogen) are added to 750 μl of GFP and incubated for 20 minutes at ambient temperature. The non-specific binding is measured in the presence of 3 mg/ml of cold fibrinogen. 900 μl of the incubate are carefully pipetted onto 250 μl of silicon oil (AP 38: AR 20, 1:2 v/v, Wacker Chemie) in Eppendorf vessels and centrifuged for 2 minutes at 10,000 *g. The aqueous supernatant and some of the oil are removed, the tip of the vessel with the platelet pellet is cut off and the quantity of bound fibrinogen is measured in a gamma-counter. The concentration of substance which inhibits fibrinogen binding by 50% is calculated from a series of concentrations and given as the IC50.

In data set [2] the test system is thrombocyte aggregation. As to the kind of experiment: Antithrombotic activity: inhibition of collagen-induced platelet aggregation (Born and Cross) in platelet-rich plasma. It counts as cell-based, healthy volunteers (human). The note with it: 10 min, human platelet-rich plasma, 10 minutes incubation at 37° C. The procedure: Method The thrombocyte aggregation is measured using the Born and Cross method (J. Physiol. 170: 397 (1964)) in platelet-rich plasma taken from healthy volunteers. To inhibit coagulation the blood is mixed with 3.14% sodium citrate in a ratio by volume of 1:10. Collagen-induced aggregation The pattern of the decrease in optical density of the platelet suspension is photometrically measured and recorded after the addition of the aggregation-triggering substance. The rate of aggregation is concluded from the angle of inclination of the density curve. The point on the curve where there is maximum light transmittance is used to calculate the optical density. The amount of collagen used is as small as possible but sufficient to produce an irreversible reaction curve. Standard commercial collagen produced by Hormonchemie of Munich is used. Before the addition of the collagen the plasma is incubated for 10 minutes with the substance at 37° C. From the measurements obtained an EC50 is determined graphically, indicating a 50% change in the optical density in terms of the inhibition of aggregation.

Data set [3] concerns mice. Briefly: Tolerability after intravenous administration to mice. It is filed as in vivo. To be noted: intravenous administration of 30 mg/kg to three mice.
Data set [4] concerns human thrombocytes. As to the kind of experiment: Antiaggregatory activity ex vivo after oral administration to rats, rat plasma in the presence of human thrombocytes. To be noted: 10 mg/kg oral, two hours after administration, rat plasma with human thrombocytes. Also on record: species or system rat (treated animals.
Data set [5] concerns the target human thrombocytes. Briefly: Fibrinogen binding test on human thrombocytes with 125I-fibrinogen replaced by a 3H-labelled ligand (footnote *). The note with it: * 125I fibrinogen replaced by 3H-labelled (3S,5S)-5-[(4amidino-4-biphenylyl)-oxymethyl... pyrrolidon ligand; 20 min; read-out: Fibrinogen binding test ID50. The procedure: as §1, with “The gel-filtered platelets (GFP) appearing in front of the plasma proteins are used for the binding tests. 50 μl of a 60 mM calcium chloride solution, 50 μl of a 0.6 mM adenosine diphosphate solution, 100 μl of substance solution or solvent and 50 μl of fibrinogen solution (containing 3 μg ^125 I-fibrinogen) are added to 750 μl of GFP and incubated for 20 minutes at ambient temperature.” left out, “IC50. | *^125 I fibrinogen was replaced by [^3 […]” for “IC50.”

Structures can show the parent of a compound that is named as a salt.

Regarding `N=C(N)c1ccc(-c2ccc(N[C@H]3CC[C@H](C(=O)O)CC3)nn2)cc1` [1(11), 6-(4-amidinophenyl)-3-[(trans-4-carboxycyclohexyl)-amino]-pyridazine], the IC50 in data set [1] stood at 580 nM. Also, the EC50 (in general, the midpoint of the concentration-response curve) in data set [2] was determined as 1200 nM.
Regarding `COC(=O)[C@H]1CC[C@H](NC(=O)c2cc(-c3ccc(C(=N)N)cc3)nn(C)c2=O)CC1` [Example 2, 6-(4-Amidinophenyl)-4-[[trans-4-(methoxycarbonyl)-cyclohexyl]-aminocarbonyl]-2-methyl-(2H)-pyridazin-3-one], the IC50 in data set [1] stood at 1900 nM. The molecule further came in with an EC50 in data set [2] of 360 nM.
On to `Cn1nc(-c2ccc(C(=N)N)cc2)cc(C(=O)N[C@H]2CC[C@H](C(=O)O)CC2)c1=O` [1(4), 6-(4-amidinophenyl)-4-[(trans-4-carboxycyclohexyl)-aminocarbonyl]-2-methyl-(2H)-pyridazin-3-one], for which, in data set [1], the IC50 came out at 37 nM. Besides, the EC50 in data set [2] stood at 540 nM. In addition, the deaths result in data set [3] is “did not cause any deaths”.
On the same counts, the results for `N=C(N)c1ccc(-c2cc(C(=O)N[C@H]3CC[C@H](C(=O)O)CC3)cnn2)cc1` [1(20), 3-(4-amidinophenyl)-5-[(trans-4-carboxycyclohexyl)-aminocarbonyl]-pyridazine] are 57 nM, 290 nM and “did not cause any deaths”.
Turning to `COC(=O)[C@H]1CC[C@H](NC(=O)c2cc(-c3ccc(CN)cc3)nn(C)c2=O)CC1` [Example 5, 6-[4-(Aminomethyl)-phenyl]-4-[[trans-4-(methoxycarbonyl)-cyclohexyl]-aminocarbonyl]-2-methyl-(2H)-pyridazin-3-one-hydrochloride], in data set [1], the IC50 was 6200 nM. Moreover, in data set [2], a half-maximal response (EC50) required 3000 nM.
In the case of `COC(=O)[C@H]1CC[C@H](N(C)C(=O)c2cc(-c3ccc(C(=N)N)cc3)nn(C)c2=O)CC1` [2(17), 6-(4-amidinophenyl)-4-[N-[trans-4-(methoxycarbonyl)-cyclohexyl]-N-methyl-aminocarbonyl]-2-methyl-(2H)-pyridazin-3-one-hydrochloride], the IC50 in data set [1] was 2300 nM. The EC50 in data set [2] came out at 1300 nM.
Consider `COc1nnc(-c2ccc(C(=N)N)cc2)cc1C(=O)N[C@H]1CC[C@H](C(=O)O)CC1` [1(21), 6-(4-amidinophenyl)-4-[(trans-4-carboxycyclohexyl)-aminocarbonyl]-3-methoxy-pyridazine], for which the IC50 in data set [1] was 62 nM. The same molecule displayed an EC50 in data set [2] of 320 nM.
On the same counts, the results for `COc1nc(-c2ccc(C(=N)N)cc2)ncc1C(=O)N1CCC(CC(=O)O)CC1` [1(14), 2-(4-amidinophenyl)-5-[4-(carboxymethyl)-piperidinocarbonyl]-4-methoxy-pyrimidine] are 33 nM and 100 nM.
Turning to `COC(=O)CC1CCN(C(=O)c2cnc(-c3ccc(C(=N)N)cc3)nc2OC)CC1` [2(15), 2-(4-amidinophenyl)-4-methoxy-5-[4-[(methoxycarbonyl)-methyl]-piperidinocarbonyl]-pyrimidine-hydrochloride], the IC50 in data set [1] amounted to 52000 nM. Besides, the EC50 in data set [2] amounted to 5200 nM.
As to `Cn1nc(-c2ccc(C(=N)N)cc2)cc(C(=O)N(C)[C@H]2CC[C@H](C(=O)O)CC2)c1=O` [1(16), 6-(4-amidinophenyl)-4-[N-(trans-4-carboxycyclohexyl)-N-methyl-aminocarbonyl]-2-methyl-(2H)-pyridazin-3-one], in data set [1], the IC50 was determined as 55 nM. The EC50 in data set [2] was 160 nM. Further, the deaths entry in data set [3] is listed as “did not cause any deaths”.
With `N=C(N)c1ccc(-c2ccc(Oc3ccc(CCC(=O)O)cc3)nn2)cc1` [1(8), 6-(4-amidinophenyl)-3-[4-(2-carboxyethyl)-phenyloxy]-pyridazine], the IC50 in data set [1] came to 1700 nM. In addition, the EC50 in data set [2] stood at 39000 nM.
On the same counts, the results for `N=C(N)c1ccc(-c2cc(C(=O)NCCCCC(=O)O)c(=O)[nH]n2)cc1` [1(3), 6-(4-amidinophenyl)-4-[(4-carboxybutyl)-aminocarbonyl]-2H-pyridazin-3-one] are 200 nM and 390 nM.
On the same counts, the results for `COC(=O)CCCCNC(=O)c1cc(-c2ccc(C(=N)N)cc2)nn(C)c1=O` [2(1), 6-(4-amidinophenyl)-4-[[4-(methoxycarbonyl)-butyl]-aminocarbonyl]-2-methyl-(2H)-pyridazin-3-one] are 3200 nM and 1900 nM.
`COC(=O)NC(=N)c1ccc(-c2cc(C(=O)N[C@H]3CC[C@H](C(=O)OC)CC3)c(=O)n(C)n2)cc1` [Example 3, 6-[4-[N-(Methoxycarbonyl)-amidino]-phenyl]-4-[[trans-4-(methoxycarbonyl)-cyclohexyl]-aminocarbonyl]-2-methyl-(2H)-pyridazin-3-one]: the IC50 in data set [1] stood at 2200 nM. Besides, the EC50 in data set [2] was over 300000 nM. For the same molecule, in data set [4], the antiaggregatory activity entry was “showed an antiaggregatory activity”. For the same molecule, the deaths result in data set [3] is on record as “did not cause any deaths”.
As to `N=C(N)c1ccc(-c2cc(C(=O)N[C@H]3CC[C@H](C(=O)O)CC3)c(=O)n(CC(=O)N3CCOCC3)n2)cc1` [1(30), 6-(4-amidinophenyl)-4-[(trans-4-carboxycyclohexyl)-aminocarbonyl]-2-[(morpholinocarbonyl)-methyl]-(2H)-pyridazin-3-one-hydrochloride], a half-maximal effect in data set [2] (EC50) was put at 100 nM. The IC50 in data set [5] was determined as 33 nM.
On to `N=C(N)c1ccc(-c2ccc(Nc3ccc(CCC(=O)O)cc3)nn2)cc1` [1(7), 6-(4-amidinophenyl)-3-[4-(2-carboxyethyl)-phenylamino]-pyridazine], for which the IC50 in data set [1] worked out at 4400 nM. In data set [2], the EC50 came to 12000 nM.
Consider `N=C(N)c1ccc(-c2cc(C(=O)N[C@H]3CC[C@H](C(=O)O)CC3)c(=O)n(Cc3ccccc3)n2)cc1` [1(18), 6-(4-amidinophenyl)-2-benzyl-4-[(trans-4-carboxycyclohexyl)-aminocarbonyl]-(2H)-pyridazin-3-one], for which it took 310 nM to reach a half-maximal effect in data set [2] (EC50). For the same molecule, in data set [5], the IC50 worked out at 33 nM.
Turning to `Cl.Cn1nc(-c2ccc(CN)cc2)cc(C(=O)N[C@H]2CC[C@H](C(=O)O)CC2)c1=O` [Example 4, 6-[4-(Aminomethyl)-phenyl]-4-[(trans-4-carboxy-cyclohexyl)-aminocarbonyl]-2-methyl-(2H)-pyridazin-3-one-hydrochloride], the IC50 in data set [1] was found to be 370 nM. The molecule also came in with an EC50 in data set [2] of 790 nM. The deaths result in data set [3] was “did not cause any deaths”.
On the same counts, the results for `Cn1nc(-c2ccc(C(=N)N)cc2)cc(C(=O)NCCCCC(=O)O)c1=O` [Example 1, 6-(4-Amidinophenyl)-4-[(4-carboxybutyl)-aminocarbonyl]-2-methyl-(2H)-pyridazin-3-one] are 130 nM, 420 nM and “did not cause any deaths”.
